In patent US20240262812A1, “N-SUBSTITUTED PHENYLSULFONAMIDE COMPOUND AND USE THEREOF” (Shanghai Leado Pharmatech Co., Ltd., priority 2021, published 2024):

Legend:
[1] = system: DNBS induced colitis in Wistar rats; assay: DNBS induced colitis model in Wistar rats; assay type: in vivo, rat; set-up: Degree of adhesion (score) / Degree of intestinal infarction (score) / Severity of ulcer (score) / Degree of intestinal wall thickening (score) / Macroscopic colon score: scale not given here; details: oral once a day Day 0 to Day 6, compounds 10 mg/kg, osalazine sodium 300 mg/kg; for Degree of adhesion (score) / Degree of intestinal infarction (score) / Degree of intestinal wall thickening (score) / Severity of ulcer (score): mean score per Table 4; for Ulcer length / Ulcer width: mean
From the text: The therapeutic effect of compounds prepared in some examples of the present invention on 2,4-dinitrobenzenesulfonic acid (DNBS) induced ulcerative colitis in Wistar rats (corresponding to Crohn's disease) was investigated.
• Animal species and strains: Wistar rats • Administration record: No administration history • Gender and weight: Male, about 150 g • Breeding party/supplier: Shanghai SLAC Laboratory Animal Co., Ltd • Adaptation period: 5 days • Room: Regular Area Rooms • Indoor temperature: 20-26° C. • Indoor relative humidity: 40-70% • Lighting: Fluorescent lighting, 12-hour illumination (08:00-20:00) and 12-hour no illumination • Animal feeding: 2-4 rats per cage (same administration group) • Food: Unlimited access to feed (disinfected by irradiation, Jiangsu Xietong Pharmaceutical Bio-engineering Co., Ltd., China) • Water: Unlimited access to drinking water (treated with reverse osmosis and high-pressure sterilization)
A total of 80 Wistar rats were purchased from Shanghai SLAC Laboratory Animal Co., Ltd, of which 10 were used as backup animals to select animals with suitable weight range included in the groups, in order to control the fluctuation of disease severity caused by weight fluctuations.
BioBook software was used to screen 70 animals for random grouping based on animal weight to ensure that the weight values of each group of animals were similar to reduce bias.
3.1 DNBS powder was dissolved in 30% ethanol with a final concentration of 60 mg/mL.
3.2 Induction of colorectal inflammation: Before the experiment, rats were fasted for 40 hours and subcutaneously injected with 5% glucose saline during the fasting period. On the day 0 of the experiment, fasting rats were anesthetized by intraperitoneal injection of Zoletil and 5 mg/kg Xylazine. G2 group-G7 group, a hose was extended from the anus to the left curvature of the colorectum, and colorectal inflammation in rats was induced with DNBS enema. The normal control group (G1) was treated with 30% ethanol enema using the same method.
3.3. Dosage regimen: After DNBS induction in G1 and G2 groups of animals, solvent was administered. After DNBS induction in G3 group, 300 mg/kg of oxalazine sodium was administered. After DNBS induction in G4 to G7 groups, 10 mg/kg of the compounds of the present invention were administered respectively. Please refer to Table 3 for the administration time, specific administration dosage, and administration route. Starting from day 0 of modeling, the drugs were administered continuously for 7 days, and the animals were euthanized on day 6.
3.4 Testing indicators: After the experiment, all animals were euthanized by inhaling excessive CO2 and dislocation of cervical vertebra. After the abdominal cavity was cut open, the colorectum was taken out and the length of it was immediately measured. Then the colorectum was longitudinally cut open and rinsed clean. The weight of the colorectum and the area of the ulcer were recorded and the whole was photographed. At the same time, the damage to the rat colorectum was evaluated macroscopically according to Table 4.
The health status of animals and their comprehensive response to surgery and medication were observed every day.
The experimental data was calculated as mean±standard error. Statistical analysis was performed using Graphpad Prism, SPSS, or Sigmaplot software. The specific data is presented in the form of charts. P<0.05 is considered to have statistical differences.

[2] = system: acetic acid induced writhing in ICR mice; assay: acetic acid induced writhing pain model in ICR mice; assay type: in vivo, mouse; details: for writhing frequency: 30 mg/kg single oral administration 1 h before 0.6% acetic acid i.p., 20 minutes observation, compared with G1 model group, FIG. 6; for efficacy compared with aspirin: 30 mg/kg single oral administration vs 200 mpk of aspirin
From the text: The pharmacological effect of compounds prepared in some examples of the present invention on an acetic acid induced writhing pain model in ICR mice was investigated.
The acetic acid writhing pain model in mice is a classic pharmacological model for evaluating the treatment of drugs for visceral pain and inflammatory pain.
• Animal species and strains: ICR mice • Medical treatment history: None • Gender, age, and weight: Male, 8 weeks old, 20-25 g • Breeder/Supplier: Shanghai SLAC Laboratory Animal Co., Ltd • Adaptation period: no less than 7 days • Room: Regular level room • Room temperature: 19-26° C. • Relative humidity: 40-70% • Lighting cycle: fluorescent lighting, 12 hours of illumination (08:00-20:00) and 12 hours of no illumination • Animal feeding: 5 animals/cage divided by group • Food: Free intake (irradiated feed, Shanghai SLAC Laboratory Animal Co., Ltd, China) • Water: Free intake (Mol Ultrapure Water System filtered municipal tap water)
A total of 70 mice were introduced from Shanghai SLAC Laboratory Animal Co., Ltd. The animals were SPF grade and purchased at approximately 7 weeks old.
Animals are randomly assigned to each treatment group according to the weight using the BioBook randomization function to achieve an approximate average weight for each group and reduce inter group bias.
3.1 Within 12 hours before use, a glacial acetic acid solution with a mass volume fraction of 0.6% was prepared with 0.9% physiological saline.
3.2. Administration treatment: G1 group animals were orally administered 0.9% physiological saline; G2-G6 were specifically administered the compounds of the present invention referred to the specific dosage regimen in Table 9.
3.3. Modeling treatment: G1 group animals were administered 0.9% physiological saline by gavage, and after 1 hour, 0.6% glacial acetic acid was injected intraperitoneally to induce pain response (10 ml/kg). G2-G8 group animals were injected intraperitoneally with 0.6% glacial acetic acid to induce pain response (10 ml/kg) after different groups were administered according to the regimen designed in Table 9.
3.4 Measurement: The weight of all mice was recorded before modeling treatment. A torsion test was recorded immediately after acetic acid treatment. The behavioral observation period lasted for 20 minutes. Writhes were counted by a single preson (one standard writhe includes abdominal muscle contraction, muscle extension, and hind limb extension). After testing, the animals were euthanized with CO2.
3.5 Experimental observation: Animal health observation and general response to drug treatment were conducted daily. All abnormal health and behavioral behaviors were recorded.
The experimental data was calculated as mean±standard error. Statistical analysis was performed using Graphpad Prism, SPSS, or Sigmaplot software. The specific data is presented in the form of graphs. P<0.05 is considered to have statistical differences.

| SMILES | Degree of adhesion (score) [1] | Degree of intestinal infarction (score) [1] | Degree of intestinal wall thickening (score) [1] | Severity of ulcer (score) [1] | Ulcer length [1] [cm] | Ulcer width [1] [cm] | writhing frequency [2] | efficacy compared with aspirin [2] |
| --- | --- | --- | --- | --- | --- | --- | --- | --- |
| CNCc1ccc(NS(=O)(=O)c2ccsc2)c(-c2ccco2)c1 [IA-30] | 0.00 | 0.00 | 0.13 | 0.80 | 0.33 | 0.19 | significantly reduce | basically equivalent to that of 200 mpk of aspirin |
| CNCc1ccc(-c2nccs2)c(NS(=O)(=O)c2ccccc2)c1 [IA-51, N-(5-((methylamino)methyl)-2-(thiazol-2-yl)phenyl)benzenesulfonamide] | 0.07 | 0.00 | 0.27 | 0.60 | 0.31 | 0.20 | significantly reduce | basically equivalent to that of 200 mpk of aspirin |
| CNCc1ccc(-c2cc[nH]n2)c(NS(=O)(=O)c2ccccc2)c1 [IA-55, N-(5-((methylamino)methyl)-2-(1H-pyrazol-3-yl)phenyl)benzenesulfonamide] | 0.10 | 0.10 | 0.30 | 1.20 | 0.60 | 0.40 | significantly reduce | basically equivalent to that of 200 mpk of aspirin |
| NCc1ccc(NS(=O)(=O)c2ccsc2)c(-c2ccco2)c1 [ID-5] | 0.00 | 0.00 | 0.10 | 0.70 | 0.34 | 0.12 | significantly reduce | basically equivalent to that of 200 mpk of aspirin |
